These results are taken from PubChem BioAssay (NCI).

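Assay format: 96-well plates, 48-hour exposure. Here, GI50 denotes the concentration required for 50% inhibition of growth. TGI: concentration producing complete growth inhibition.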

One assay deals with LOX IMVI melanoma. The assay is described as follows: DTP human tumour cell line panel, 48 h.
Take `C[C@]12CCc3sc(Nc4ccc(OC(F)(F)F)cc4)nc3C1=CC[C@@H]1[C@@H]2CC[C@]2(C)C(=O)CC[C@@H]12`: the GI50 was 1.74 µM and the TGI came to 3.18 µM.
The matching figures for `CCN1C(=O)c2ccc3c4c(ccc(c24)C1=O)C(=O)N(CCCNCc1ccccc1OC)C3=O`: 0.314 µM and 1.31 µM.
`O=C(/C=C/c1ccccc1)Nc1ncc(Cc2ccccc2Cl)s1`: the GI50 is 0.426 µM and the TGI was over 100 µM.
Taken in the same sequence, the figures for `CN(c1ccc(NC(=O)Nc2c(Cl)cccc2Cl)cc1)c1ccnc(Nc2cccc(CS(C)(=O)=O)c2)n1` were 2.37 µM and over 14.7 µM.
In the case of `CCCCCCCCn1ccc2cc(NC(=O)Cn3cc(CN4CCCCCC4)nn3)ccc21`, the GI50 is 1.7 µM and the TGI came out at 3.17 µM.
For `COc1ccc2c(c1)C(=O)CCc1cc(OC)c(OC)c(OC)c1-2`, the GI50 was under 0.01 µM and the TGI was over 100 µM.
In the case of `CC(C)CNc1nc(-c2ccccc2Cl)nc2ccccc12`, the GI50 is 14.5 µM and the TGI is 27.6 µM.
Turning to `O=C(Nc1cccc(O)c1)C(=O)C1C(=O)NC(=S)NC1=O`, the TGI was over 100 µM.
`O=C1N/C(=C\[N+](=O)[O-])c2ccccc21` gave a total growth inhibition concentration (TGI) of over 100 µM.
`CCN(CC)CCNC(Cc1ccccc1)c1ccc(OCc2ccccc2)cc1` (configuration not stated): the GI50 was 4.19 µM and the TGI was 15.9 µM.
Taken in the same sequence, the figures for `Cn1c(Cl)c(/C=C2/C(=O)Nc3ccccc32)c2ccccc21` were 1.16 µM and 18.9 µM.
With `CCOC1C(Br)Cn2c(=O)c3cc4ccccc4cc3c(=O)n2C1C` (configuration not stated), the TGI is over 100 µM.
On to `O=C1NC(=S)S/C1=C/c1ccc2c(c1)OCO2`, for which the GI50 was over 100 µM and the TGI was over 100 µM.
As to `Cc1cc(Cl)ccc1OCC(=O)Nc1nc2c(Cl)cccc2s1`, the GI50 is 9.82 µM and the TGI is 45.6 µM.
Regarding `CNC(=O)OCc1c(COC(=O)NC)c(-c2ccc(-c3ccccc3)cc2)n(C)c1C`, the TGI is 11.7 µM.
For the molecule `N/N=C\c1c2ccccc2c(=O)n2c1oc1ccccc12`, the GI50 was 16.4 µM and the TGI came out at 29.9 µM.
Turning to `COc1ccc2nc3cc(Cl)ccc3c(Sc3ccc([N+](=O)[O-])cc3C)c2c1`, the TGI was over 100 µM.

Another assay concerns SNB-75 CNS. As to the kind of experiment: DTP human tumour cell line panel, 48 h.
For the molecule `C[C@]12CCc3sc(Nc4ccc(OC(F)(F)F)cc4)nc3C1=CC[C@@H]1[C@@H]2CC[C@]2(C)C(=O)CC[C@@H]12`, the GI50 is 1.88 µM and the TGI is 6.23 µM.
Taken in the same sequence, the figures for `CCN1C(=O)c2ccc3c4c(ccc(c24)C1=O)C(=O)N(CCCNCc1ccccc1OC)C3=O` were 1.57 µM and 3.01 µM.
The matching figures for `O=C(/C=C/c1ccccc1)Nc1ncc(Cc2ccccc2Cl)s1`: 0.219 µM and 2.16 µM.
For the molecule `CN(c1ccc(NC(=O)Nc2c(Cl)cccc2Cl)cc1)c1ccnc(Nc2cccc(CS(C)(=O)=O)c2)n1`, the GI50 is 1.69 µM and the TGI came out at 7 µM.
Taken in the same sequence, the figures for `CN(C)C/C=C/C(=O)Nc1ccc(C(=O)N[C@@]2(C)CCC[C@@H](Nc3ncc(Cl)c(-c4c[nH]c5ccccc45)n3)C2)nc1` were 0.0137 µM and 0.0427 µM.
Taken in the same sequence, the figures for `CCCCCCCCn1ccc2cc(NC(=O)Cn3cc(CN4CCCCCC4)nn3)ccc21` were 1.55 µM and 2.91 µM.
As to `O=C(Nc1cccc(O)c1)C(=O)C1C(=O)NC(=S)NC1=O`, the TGI was over 100 µM.
Still for that read-out and setting: in the case of `CN(C)CCOc1ccc([N+](=O)[O-])c2cccnc12` it was over 100 µM.
Turning to `O=C1N/C(=C\[N+](=O)[O-])c2ccccc21`, the TGI stood at 93.3 µM.
As for `CCN(CC)CCNC(Cc1ccccc1)c1ccc(OCc2ccccc2)cc1` (configuration not stated), the GI50 is 4.29 µM and the TGI stood at 18 µM.
The matching figures for `Cn1c(Cl)c(/C=C2/C(=O)Nc3ccccc32)c2ccccc21`: 3.28 µM and 23 µM.
Turning to `CCOC1C(Br)Cn2c(=O)c3cc4ccccc4cc3c(=O)n2C1C` (configuration not stated), the TGI is over 100 µM.
Take `Cc1cc(Cl)ccc1OCC(=O)Nc1nc2c(Cl)cccc2s1`: the GI50 was 23.7 µM and the TGI was over 100 µM.
With `CNC(=O)OCc1c(COC(=O)NC)c(-c2ccc(-c3ccccc3)cc2)n(C)c1C`, the TGI was 10.6 µM.
As to `N/N=C\c1c2ccccc2c(=O)n2c1oc1ccccc12`, the GI50 is 11.5 µM and the TGI came out at 31 µM.
In turn, `COc1ccc2nc3cc(Cl)ccc3c(Sc3ccc([N+](=O)[O-])cc3C)c2c1` registered a TGI of over 100 µM.

The subject of another assay is EKVX NSCLC. The assay is described as follows: DTP human tumour cell line panel, 48 h.
Take `C[C@]12CCc3sc(Nc4ccc(OC(F)(F)F)cc4)nc3C1=CC[C@@H]1[C@@H]2CC[C@]2(C)C(=O)CC[C@@H]12`: the GI50 was 2.63 µM and the TGI worked out at 17.4 µM.
Taken in the same sequence, the figures for `O=C(/C=C/c1ccccc1)Nc1ncc(Cc2ccccc2Cl)s1` were 0.571 µM and over 100 µM.
The matching figures for `CN(c1ccc(NC(=O)Nc2c(Cl)cccc2Cl)cc1)c1ccnc(Nc2cccc(CS(C)(=O)=O)c2)n1`: 6.31 µM and over 25 µM.
With `CN(C)C/C=C/C(=O)Nc1ccc(C(=O)N[C@@]2(C)CCC[C@@H](Nc3ncc(Cl)c(-c4c[nH]c5ccccc45)n3)C2)nc1`, the GI50 was under 0.01 µM and the TGI was determined as 0.564 µM.
Consider `CCCCCCCCn1ccc2cc(NC(=O)Cn3cc(CN4CCCCCC4)nn3)ccc21`, for which the GI50 was 1.68 µM and the concentration for total growth inhibition (TGI) was determined as 3.43 µM.
`O=C(Nc1cccc(O)c1)C(=O)C1C(=O)NC(=S)NC1=O` had a total growth inhibition concentration (TGI) of over 100 µM.
`O=C1N/C(=C\[N+](=O)[O-])c2ccccc21` returned a TGI of over 100 µM.
Still for that read-out and setting: in the case of `Cn1c(Cl)c(/C=C2/C(=O)Nc3ccccc32)c2ccccc21` it was 7.52 µM.
Regarding `C=C(C)[C@@H]1CC[C@]2(COCCCN)CC[C@]3(C)[C@H](CC[C@@H]4[C@@](C)(CCCNCCCN)[C@H](C(=C)C)CC[C@]43C)[C@@H]12`, the GI50 is 1.71 µM and the concentration for total growth inhibition (TGI) was 3.21 µM.
For `CCOC1C(Br)Cn2c(=O)c3cc4ccccc4cc3c(=O)n2C1C` (configuration not stated), the TGI was over 100 µM.
Turning to `O=C1NC(=S)S/C1=C/c1ccc2c(c1)OCO2`, the GI50 was 88.4 µM and the TGI is over 100 µM.
Taken in the same sequence, the figures for `Cc1cc(Cl)ccc1OCC(=O)Nc1nc2c(Cl)cccc2s1` were over 100 µM and over 100 µM.
`CNC(=O)OCc1c(COC(=O)NC)c(-c2ccc(-c3ccccc3)cc2)n(C)c1C` displayed a TGI of 11.1 µM.
In the case of `N/N=C\c1c2ccccc2c(=O)n2c1oc1ccccc12`, the GI50 was 10.2 µM and the total growth inhibition concentration (TGI) came to 26.2 µM.
`COc1ccc2nc3cc(Cl)ccc3c(Sc3ccc([N+](=O)[O-])cc3C)c2c1` returned a concentration for total growth inhibition (TGI) of over 100 µM.

A further assay deals with K-562 leukemia. The assay is described as follows: DTP human tumour cell line panel, 48 h.
`C[C@]12CCc3sc(Nc4ccc(OC(F)(F)F)cc4)nc3C1=CC[C@@H]1[C@@H]2CC[C@]2(C)C(=O)CC[C@@H]12`: the GI50 was 1.87 µM and the TGI worked out at 6.64 µM.
The matching figures for `CCN1C(=O)c2ccc3c4c(ccc(c24)C1=O)C(=O)N(CCCNCc1ccccc1OC)C3=O`: 0.936 µM and 4.27 µM.
The matching figures for `O=C(/C=C/c1ccccc1)Nc1ncc(Cc2ccccc2Cl)s1`: 0.223 µM and over 100 µM.
`CN(c1ccc(NC(=O)Nc2c(Cl)cccc2Cl)cc1)c1ccnc(Nc2cccc(CS(C)(=O)=O)c2)n1`: the GI50 is 1.54 µM and the TGI is over 25 µM.
The matching figures for `CN(C)C/C=C/C(=O)Nc1ccc(C(=O)N[C@@]2(C)CCC[C@@H](Nc3ncc(Cl)c(-c4c[nH]c5ccccc45)n3)C2)nc1`: under 0.01 µM and 5.32 µM.
Taken in the same sequence, the figures for `CCCCCCCCn1ccc2cc(NC(=O)Cn3cc(CN4CCCCCC4)nn3)ccc21` were 1.67 µM and 3.6 µM.
Consider `COc1ccc2c(c1)C(=O)CCc1cc(OC)c(OC)c(OC)c1-2`, for which the GI50 is under 0.01 µM and the TGI is over 100 µM.
For the molecule `CC(C)CNc1nc(-c2ccccc2Cl)nc2ccccc12`, the GI50 was 16.8 µM and the TGI was 43.5 µM.
`O=C(Nc1cccc(O)c1)C(=O)C1C(=O)NC(=S)NC1=O`: the TGI is over 100 µM.
On the same count and under the same terms, the value for `CN(C)CCOc1ccc([N+](=O)[O-])c2cccnc12` was over 100 µM; that for `O=C1N/C(=C\[N+](=O)[O-])c2ccccc21` was over 100 µM.
Take `CCN(CC)CCNC(Cc1ccccc1)c1ccc(OCc2ccccc2)cc1` (configuration not stated): the GI50 was 2.37 µM and the total growth inhibition concentration (TGI) was determined as 7.16 µM.
Regarding `Cn1c(Cl)c(/C=C2/C(=O)Nc3ccccc32)c2ccccc21`, the GI50 was 0.0601 µM and the TGI was over 100 µM.
Taken in the same sequence, the figures for `C=C(C)[C@@H]1CC[C@]2(COCCCN)CC[C@]3(C)[C@H](CC[C@@H]4[C@@](C)(CCCNCCCN)[C@H](C(=C)C)CC[C@]43C)[C@@H]12` were 1.67 µM and 3.57 µM.
Molecule `CCOC1C(Br)Cn2c(=O)c3cc4ccccc4cc3c(=O)n2C1C` (configuration not stated) had a TGI of over 100 µM.
`O=C1NC(=S)S/C1=C/c1ccc2c(c1)OCO2`: the GI50 is over 100 µM and the TGI is over 100 µM.
As to `Cc1cc(Cl)ccc1OCC(=O)Nc1nc2c(Cl)cccc2s1`, the GI50 is 7.25 µM and the TGI is over 100 µM.
As for `N/N=C\c1c2ccccc2c(=O)n2c1oc1ccccc12`, the GI50 is 20.8 µM and the TGI was 67.6 µM.
As to `COc1ccc2nc3cc(Cl)ccc3c(Sc3ccc([N+](=O)[O-])cc3C)c2c1`, the TGI was over 100 µM.

In a further assay the test system is HCT-116 colon. The assay is described as follows: DTP human tumour cell line panel, 48 h.
Regarding `CCN1C(=O)c2ccc3c4c(ccc(c24)C1=O)C(=O)N(CCCNCc1ccccc1OC)C3=O`, the GI50 was 0.329 µM and the TGI was 1.14 µM.
Taken in the same sequence, the figures for `O=C(/C=C/c1ccccc1)Nc1ncc(Cc2ccccc2Cl)s1` were 0.375 µM and over 100 µM.
In the case of `CN(c1ccc(NC(=O)Nc2c(Cl)cccc2Cl)cc1)c1ccnc(Nc2cccc(CS(C)(=O)=O)c2)n1`, the GI50 was 1.3 µM and the TGI worked out at 7.45 µM.
The matching figures for `CN(C)C/C=C/C(=O)Nc1ccc(C(=O)N[C@@]2(C)CCC[C@@H](Nc3ncc(Cl)c(-c4c[nH]c5ccccc45)n3)C2)nc1`: under 0.01 µM and 0.124 µM.
As to `CCCCCCCCn1ccc2cc(NC(=O)Cn3cc(CN4CCCCCC4)nn3)ccc21`, the GI50 is 1.66 µM and the TGI amounted to 3.1 µM.
For the molecule `COc1ccc2c(c1)C(=O)CCc1cc(OC)c(OC)c(OC)c1-2`, the GI50 was under 0.01 µM and the TGI was over 100 µM.
Taken in the same sequence, the figures for `CC(C)CNc1nc(-c2ccccc2Cl)nc2ccccc12` were 16.6 µM and 30.2 µM.
`O=C(Nc1cccc(O)c1)C(=O)C1C(=O)NC(=S)NC1=O` yielded a TGI of over 100 µM.
On the same count and under the same terms, the value for `CN(C)CCOc1ccc([N+](=O)[O-])c2cccnc12` was over 100 µM.
Still for that read-out and setting: in the case of `O=C1N/C(=C\[N+](=O)[O-])c2ccccc21` it was over 100 µM.
As to `CCN(CC)CCNC(Cc1ccccc1)c1ccc(OCc2ccccc2)cc1` (configuration not stated), the GI50 was 4.25 µM and the TGI stood at 25.5 µM.
Taken in the same sequence, the figures for `Cn1c(Cl)c(/C=C2/C(=O)Nc3ccccc32)c2ccccc21` were 0.306 µM and 12.3 µM.
`C=C(C)[C@@H]1CC[C@]2(COCCCN)CC[C@]3(C)[C@H](CC[C@@H]4[C@@](C)(CCCNCCCN)[C@H](C(=C)C)CC[C@]43C)[C@@H]12`: the GI50 was 1.45 µM and the TGI came to 2.84 µM.
Turning to `CCOC1C(Br)Cn2c(=O)c3cc4ccccc4cc3c(=O)n2C1C` (configuration not stated), the TGI was over 100 µM.
Turning to `O=C1NC(=S)S/C1=C/c1ccc2c(c1)OCO2`, the GI50 was over 100 µM and the TGI was over 100 µM.
`CNC(=O)OCc1c(COC(=O)NC)c(-c2ccc(-c3ccccc3)cc2)n(C)c1C` registered a concentration for total growth inhibition (TGI) of 14.1 µM.
The same measure, in the same setting: the value for `COc1ccc2nc3cc(Cl)ccc3c(Sc3ccc([N+](=O)[O-])cc3C)c2c1` was over 100 µM.

The test system of the next assay is NCI/ADR-RES ovarian. The assay is described as follows: DTP human tumour cell line panel, 48 h.
Regarding `C[C@]12CCc3sc(Nc4ccc(OC(F)(F)F)cc4)nc3C1=CC[C@@H]1[C@@H]2CC[C@]2(C)C(=O)CC[C@@H]12`, the GI50 is 3.93 µM and the TGI came to 20.2 µM.
